According to BigSolDB 2.1:

O=P(O)(O)c1ccccc1
Conditions	solubility (mole fraction)
in 1,4-dioxane, 288.15 K	0.186
in 1,4-dioxane, 293.15 K	0.208
in 1,4-dioxane, 298.15 K	0.224
in 1,4-dioxane, 303.15 K	0.243
in 1,4-dioxane, 308.15 K	0.264
in 1,4-dioxane, 313.15 K	0.286
in 1,4-dioxane, 318.15 K	0.307
in 1,4-dioxane, 323.15 K	0.336
in 1,4-dioxane, 328.15 K	0.36
in 1,4-dioxane, 333.15 K	0.388
in 2-butoxyethanol, 278.15 K	0.199
in 2-butoxyethanol, 283.15 K	0.208
in 2-butoxyethanol, 288.15 K	0.218
in 2-butoxyethanol, 293.15 K	0.231
in 2-butoxyethanol, 298.15 K	0.243
in 2-butoxyethanol, 303.15 K	0.258
in 2-butoxyethanol, 308.15 K	0.27
in 2-butoxyethanol, 313.15 K	0.283
in 2-butoxyethanol, 318.15 K	0.298
in 2-butoxyethanol, 323.15 K	0.317
in 2-butoxyethanol, 328.15 K	0.334
in 2-butoxyethanol, 333.15 K	0.355
in 2-ethoxyethanol, 278.15 K	0.305
in 2-ethoxyethanol, 283.15 K	0.317
in 2-ethoxyethanol, 288.15 K	0.327
in 2-ethoxyethanol, 293.15 K	0.339
in 2-ethoxyethanol, 298.15 K	0.35
in 2-ethoxyethanol, 303.15 K	0.363
in 2-ethoxyethanol, 308.15 K	0.378
in 2-ethoxyethanol, 313.15 K	0.391
in 2-ethoxyethanol, 318.15 K	0.404
in 2-ethoxyethanol, 323.15 K	0.42
in 2-ethoxyethanol, 328.15 K	0.439
in 2-ethoxyethanol, 333.15 K	0.454
in 2-methoxyethanol, 278.15 K	0.342
in 2-methoxyethanol, 283.15 K	0.348
in 2-methoxyethanol, 288.15 K	0.359
in 2-methoxyethanol, 293.15 K	0.371
in 2-methoxyethanol, 298.15 K	0.383
in 2-methoxyethanol, 303.15 K	0.397
in 2-methoxyethanol, 308.15 K	0.408
in 2-methoxyethanol, 313.15 K	0.425
in 2-methoxyethanol, 318.15 K	0.439
in 2-methoxyethanol, 323.15 K	0.453
in 2-methoxyethanol, 328.15 K	0.468
in 2-methoxyethanol, 333.15 K	0.483
in 2-propoxyethanol, 278.15 K	0.244
in 2-propoxyethanol, 283.15 K	0.257
in 2-propoxyethanol, 288.15 K	0.266
in 2-propoxyethanol, 293.15 K	0.28
in 2-propoxyethanol, 298.15 K	0.295
in 2-propoxyethanol, 303.15 K	0.307
in 2-propoxyethanol, 308.15 K	0.318
in 2-propoxyethanol, 313.15 K	0.336
in 2-propoxyethanol, 318.15 K	0.349
in 2-propoxyethanol, 323.15 K	0.368
in 2-propoxyethanol, 328.15 K	0.382
in 2-propoxyethanol, 333.15 K	0.401
in acetone, 273.15 K	0.0872
in acetone, 278.15 K	0.101
in acetone, 283.15 K	0.113
in acetone, 288.15 K	0.13
in acetone, 293.15 K	0.144
in acetone, 298.15 K	0.162
in acetone, 303.15 K	0.178
in acetone, 308.15 K	0.201
in acetone, 313.15 K	0.223
in acetone, 318.15 K	0.249
in ethanol, 278.15 K	0.288
in ethanol, 283.15 K	0.295
in ethanol, 288.15 K	0.305
in ethanol, 293.15 K	0.314
in ethanol, 298.15 K	0.326
in ethanol, 303.15 K	0.334
in ethanol, 308.15 K	0.347
in ethanol, 313.15 K	0.357
in ethanol, 318.15 K	0.371
in ethanol, 323.15 K	0.383
in ethanol, 328.15 K	0.394
in ethanol, 333.15 K	0.407
in isopropanol, 278.15 K	0.24
in isopropanol, 283.15 K	0.251
in isopropanol, 288.15 K	0.265
in isopropanol, 293.15 K	0.277
in isopropanol, 298.15 K	0.291
in isopropanol, 303.15 K	0.307
in isopropanol, 308.15 K	0.317
in isopropanol, 313.15 K	0.331
in isopropanol, 318.15 K	0.346
in isopropanol, 323.15 K	0.361
in isopropanol, 328.15 K	0.376
in isopropanol, 333.15 K	0.394
in methanol, 273.15 K	0.29
in methanol, 278.15 K	0.299
in methanol, 283.15 K	0.307
in methanol, 288.15 K	0.315
in methanol, 293.15 K	0.324
in methanol, 298.15 K	0.335
in methanol, 303.15 K	0.347
in methanol, 308.15 K	0.357
in methanol, 313.15 K	0.369
in methanol, 318.15 K	0.38
in n-butanol, 278.15 K	0.193
in n-butanol, 283.15 K	0.204
in n-butanol, 288.15 K	0.22
in n-butanol, 293.15 K	0.232
in n-butanol, 298.15 K	0.248
in n-butanol, 303.15 K	0.26
in n-butanol, 308.15 K	0.273
in n-butanol, 313.15 K	0.29
in n-butanol, 318.15 K	0.304
in n-butanol, 323.15 K	0.321
in n-butanol, 328.15 K	0.337
in n-butanol, 333.15 K	0.354
in n-heptanol, 278.15 K	0.122
in n-heptanol, 283.15 K	0.133
in n-heptanol, 288.15 K	0.143
in n-heptanol, 293.15 K	0.158
in n-heptanol, 298.15 K	0.17
in n-heptanol, 303.15 K	0.183
in n-heptanol, 308.15 K	0.196
in n-heptanol, 313.15 K	0.212
in n-heptanol, 318.15 K	0.227
in n-heptanol, 323.15 K	0.243
in n-heptanol, 328.15 K	0.26
in n-heptanol, 333.15 K	0.278
in n-hexanol, 278.15 K	0.134
in n-hexanol, 283.15 K	0.146
in n-hexanol, 288.15 K	0.159
in n-hexanol, 293.15 K	0.174
in n-hexanol, 298.15 K	0.188
in n-hexanol, 303.15 K	0.202
in n-hexanol, 308.15 K	0.218
in n-hexanol, 313.15 K	0.23
in n-hexanol, 318.15 K	0.245
in n-hexanol, 323.15 K	0.26
in n-hexanol, 328.15 K	0.278
in n-hexanol, 333.15 K	0.297
in n-octanol, 278.15 K	0.0997
in n-octanol, 283.15 K	0.11
in n-octanol, 288.15 K	0.123
in n-octanol, 293.15 K	0.134
in n-octanol, 298.15 K	0.147
in n-octanol, 303.15 K	0.161
in n-octanol, 308.15 K	0.177
in n-octanol, 313.15 K	0.189
in n-octanol, 318.15 K	0.202
in n-octanol, 323.15 K	0.218
in n-octanol, 328.15 K	0.234
in n-octanol, 333.15 K	0.252
in n-pentanol, 278.15 K	0.161
in n-pentanol, 283.15 K	0.175
in n-pentanol, 288.15 K	0.186
in n-pentanol, 293.15 K	0.199
in n-pentanol, 298.15 K	0.212
in n-pentanol, 303.15 K	0.226
in n-pentanol, 308.15 K	0.242
in n-pentanol, 313.15 K	0.258
in n-pentanol, 318.15 K	0.273
in n-pentanol, 323.15 K	0.287
in n-pentanol, 328.15 K	0.308
in n-pentanol, 333.15 K	0.323
in n-propanol, 278.15 K	0.236
in n-propanol, 283.15 K	0.248
in n-propanol, 288.15 K	0.262
in n-propanol, 293.15 K	0.271
in n-propanol, 298.15 K	0.286
in n-propanol, 303.15 K	0.296
in n-propanol, 308.15 K	0.311
in n-propanol, 313.15 K	0.321
in n-propanol, 318.15 K	0.332
in n-propanol, 323.15 K	0.347
in n-propanol, 328.15 K	0.361
in n-propanol, 333.15 K	0.375
